“Also recorded” adds a separate entry of the source. Ends that are not written are not given here. * marks the point of attachment. Biotin = O=C1N[C@H]2[C@H](CS[C@H]2CCCCC(=O)*)N1
How the values were obtained:
[1] = system: anti-CD3 stimulation of CBA spleen cells; assay: Anti-CD3 stimulation ([3H]-TdR incorporation); type: cell-based, mouse; details: for inhibition of anti-CD3 stimulation: result in words
Protocol: Anti-CD3 Stimulation and Mixed Lymphocyte Culture. Spleen cells isolated from CBA mice were stimulated (2×10^5/well) with anti-CD3 monoclonal antibody (Pharmingen, San Diego) at a final concentration of 0.1 to 1 μg/ml in 96-well, round-bottom microculture plates (Nunc, Denmark). Peptides at various concentrations were added at the beginning of the culture. Cells were incubated for a period of 3 days at 37° C., 5% CO2. Twenty-four hours before harvesting 1 μCi[^3H]-TdR (Amersham, Arlington Heights, Ill.) was added to individual wells. Cells were then harvested using a Filtermate 196 Harvester (Packard, Downers Grove, Ill.) and the degree of thymidine incorporation was measured using a TopCount Microplate Scintillation Counter (Packard). For MLR, CBA spleen cells were used as responders and B6 spleen cells as stimulators. B6 spleen cells were pre- treated with mitomycin-C (Calbiochem, La Jolla, Calif.) at 0.5 mg/ml for 20 min at 36° C. Cells were then washed three times to remove excess mitomycin-C. CBA spleen cells (2×10^5/well) were cultured with an equal number of mitomycin C-treated B6 cells in serum-free Aim V medium for periods of 3 to 6 days. One microcurie of [^3H]-TdR was added to the culture 24 hour before cell harvesting and the degree of thymidine incorporation was quantified as described above.

[2] = system: CTL activity (CBA to B6 effector cells, EL4 target cells); assay: Cytotoxic T cell activity (51Cr release); type: cell-based, mouse; details: for inhibition of CTL activity: result in words
Protocol: Cytotoxic T Cell Activity. To assay the effect of peptides on cytotoxic T cell activity, CBA to B6 effector cells were prepared following a 6-day culture of 4×10^6 CBA spleen cells with 5×10^6 mitomycin-treated B6 spleen cells in wells of a 24 well plate (Nuncion Delta, Nunc, Denmark) in RPMI-1640 with 10% FBS. Effector cells were then harvested and washed. EL4 (H-2^b), a mouse lymphoma induced in C57BL/6N was used as target cells. Cultured EL4 cells were maintained and sub-cultured once every three days […] Effector (E) and target (T) cells were then added into V-shaped tissue culture plates (Nunc, Denmark) at E:T ratios of 3:1, 10:1, 30:1, 100:1, respectively. Peptides were diluted to the working concentrations with R-10 medium and added at the beginning of the 4-hour incubation period. For the determination of maximal release, 1% Triton X-100 was added to separate wells. Plates were then centrifuged for 2 min to increase cellular contact before the 4-hour incubation period. After incubation, 75 μl supernatant from each well was collected and the amount of ^51Cr was counted using a TopCount Scintillation Counter. The degree of cell lysis was calculated using the formula below: [formula]

[3] = system: B6 hearts in CBA recipients; assay: Heterotopic heart transplantation; type: in vivo, mouse; details: 10 mg/kg/day, day 0 to day 10; untreated MST 7.5+/−1.1; p=0.0007
Protocol: The in vivo immunosuppressive activity of the peptides was evaluated in heterotopic heart transplantation in the model described by Ono and Lindsey, (J Thorac Cardiovasc Surg 1969, 7:225). CBA recipients of B6 hearts were treated 10 mg/kg/day of p15 from day 0 to day 10 after transplantation. Untreated recipients rejected the allografts between day 6 and 10 (MST=7.5+/−1.1 days). Treatment of recipients with p15 lead to a significant increase of graft survival (MST=14.4+/−1.5 days, p vs control=0.0007; Mann-Whitney Test).

[4] = system: human peripheral blood lymphocytes; assay: Staining of PBLs with biotinylated peptide panel; type: binding; details: for binding to PBLs: 50 μg/ml biotinylated peptide; for binding on resting lymphocytes: majority of binding on macrophage/polymorphonuclear leukocytes population
Source text: (§1) In the next study, human peripheral blood lymphocytes were isolated and stained with the biotinylated peptide panel. […] Using human and murine cell lines, a spectrum of binding affinity was observed.

Jurkat cell line E6-1 = assay: Binding of biotinylated peptide to cell lines; details: among human and murine cell lines
Source text: as §1

[5] = system: NK cell activity (killing of YAC-1 cells by CBA spleen cells); assay: NK cell activity (51Cr release); type: cell-based, mouse; details: YAC-1 targets, freshly isolated CBA spleen cells
Protocol: NK Cell Activity. YAC-1, a mouse lymphoma which was induced by inoculation of Moloney leukemia virus into a newborn A/Sn mouse was used as the NK cell target (ATCC TIB 160). Four thousand sodium chromate labeled YAC-1 cells were cultured with different concentrations of freshly isolated CBA spleen cells (effector to target ratios: 62.5:1, 125:1, 250:1, 500:1) in V-shaped bottom plates with RPMI-1640 containing 10% FBS for 4 h at 37° C., 5% CO2. The degree of cell lysis was quantified by the release of ^51Cr into the supernatants. After incubation, plates were centrifuged and 75 μl of supernatant was collected. The degree of cell lysis was measured using a TopCount Scintillation Counter. The degree of cell lysis was calculated using the formula below: [formula]

[6] = system: anti-H2b CTL effector population; assay: Binding of biotinylated peptide to CTL effectors; set-up: species or system mouse; details: cells activated (IL-2 receptor expression)

## 3: Bt-SGSG-RENLRTALRY (Biotin-SGSGRENLRTALRY-OH) [compound 3]
[1]
  inhibition of anti-CD3 stimulation at 5 μg/ml: substantially less inhibition
  inhibition of anti-CD3 stimulation at 50 μg/ml: substantially complete inhibition
  inhibition of anti-CD3 stimulation: inhibit the anti-CD3 stimulation in a dose dependent manner

## 4: Bt-SGSG-RVNLRTALRY [compound 4]
[2]
  inhibition of CTL activity: inhibitory activity substantially greater than contol

## 16: Bi-SGSG-LRIALRYYWD [compound 16]
[2]
  inhibition of CTL activity: inhibitory activity substantially greater than contol
[1]
  inhibition of anti-CD3 stimulation at 5 μg/ml: substantially less inhibition
  inhibition of anti-CD3 stimulation at 50 μg/ml: substantially complete inhibition
  inhibition of anti-CD3 stimulation: inhibit the anti-CD3 stimulation in a dose dependent manner

## 17: Bt-SGSG-IALRYYWDS [compound 17]
[1]
  inhibition of anti-CD3 stimulation at 5 μg/ml: substantially less inhibition
  inhibition of anti-CD3 stimulation at 50 μg/ml: substantially complete inhibition
  inhibition of anti-CD3 stimulation: inhibit the anti-CD3 stimulation in a dose dependent manner

## 19: Bt-SGSG-LRYYWDSEA [compound 19]
[2]
  inhibition of CTL activity: inhibitory activity substantially greater than contol

## 20: Bt-SGSG-RIALRAAA [compound 20]
[2]
  inhibition of CTL activity: inhibitory activity substantially greater than contol

## 23: Bt-SGSG-NLRIALRY [compound 23]
[2]
  inhibition of CTL activity: inhibitory activity substantially greater than contol

## 27: Bt-SGSG-QTDRENLRIA [compound 27]
[2]
  inhibition of CTL activity: inhibitory activity substantially greater than contol
[1]
  inhibition of anti-CD3 stimulation at 5 μg/ml: significant levels of inhibition

## 34: Bt-SGSG-REALRIALRY [compound 34]
[2]
  inhibition of CTL activity: inhibitory activity substantially greater than contol

## 40: Bt-SGSG-RENLRIALRA [compound 40]
[1]
  inhibition of anti-CD3 stimulation at 5 μg/ml: substantially less inhibition
  inhibition of anti-CD3 stimulation at 50 μg/ml: substantially complete inhibition
  inhibition of anti-CD3 stimulation: inhibit the anti-CD3 stimulation in a dose dependent manner

## 41: Bt-SGSG-RVDLRTLRGY [compound 41]
[1]
  inhibition of anti-CD3 stimulation at 5 μg/ml: substantially less inhibition
  inhibition of anti-CD3 stimulation at 50 μg/ml: substantially complete inhibition
  inhibition of anti-CD3 stimulation: inhibit the anti-CD3 stimulation in a dose dependent manner

## 42: Bt-SGSG-RVSLRNLRGY [compound 42]
[1]
  inhibition of anti-CD3 stimulation at 5 μg/ml: significant levels of inhibition
  inhibition of anti-CD3 stimulation at 50 μg/ml: substantially complete inhibition
  inhibition of anti-CD3 stimulation: inhibit the anti-CD3 stimulation in a dose dependent manner

## 43: Bt-SGSG-RVNLRTLRRY; marked E in the table [compound 43]
[1]
  inhibition of anti-CD3 stimulation at 5 μg/ml: significant levels of inhibition
  inhibition of anti-CD3 stimulation at 50 μg/ml: substantially complete inhibition
  inhibition of anti-CD3 stimulation: inhibit the anti-CD3 stimulation in a dose dependent manner

## Bt-SGSG-NLRIALRYYW; positions 77–85 terminating with tryptophan (Biotin-SGSGNLRIALRYYW-OH) [peptide 15]
[2]; H2k>H2b, H2d>H2b, H2k>H2d strain combinations
  CTL inhibition across different MHC combinations: greater activity than B2702 monomer; also recorded: non-MHC restricted
[2]; lysis without peptide 42%
  percentage lysis in presence of peptide: 7%
[2]
  inhibition of CTL activity: inhibited CTL activity; also recorded: highest degree of inhibition
[3]
  graft survival MST: 14.4 ± 1.5 days
[4]
  binding to PBLs: bound to the PBLs
  binding on resting lymphocytes: little or no binding on resting lymphocytes
Jurkat cell line E6-1
  degree of binding to cell line: highest degree of binding
[1]
  inhibition of anti-CD3 stimulation at 5 μg/ml: substantially less inhibition
  inhibition of anti-CD3 stimulation at 50 μg/ml: substantially complete inhibition
  inhibition of anti-CD3 stimulation: inhibit the anti-CD3 stimulation in a dose dependent manner
[5]
  inhibition of NK cell killing: able to inhibit the killing of YAC-1
[6]
  binding to activated CTL effector cells: binding of peptide 15 was observed

## Bue-1: 2702 MAP; no sequence printed in the table (SGSGRENLRIALRY; not fully specified; also: MAP construct)
[1]
  inhibition of anti-CD3 stimulation at 5 μg/ml: substantially less inhibition
  inhibition of anti-CD3 stimulation at 50 μg/ml: substantially complete inhibition
  inhibition of anti-CD3 stimulation: inhibit the anti-CD3 stimulation in a dose dependent manner

## Bue-3: ENLRIALR
[1]
  inhibition of anti-CD3 stimulation at 5 μg/ml: substantially less inhibition
  inhibition of anti-CD3 stimulation at 50 μg/ml: substantially complete inhibition
  inhibition of anti-CD3 stimulation: inhibit the anti-CD3 stimulation in a dose dependent manner

## Bue-4: ENLRIAL
[1]
  inhibition of anti-CD3 stimulation at 5 μg/ml: substantially less inhibition
  inhibition of anti-CD3 stimulation at 50 μg/ml: substantially complete inhibition
  inhibition of anti-CD3 stimulation: inhibit the anti-CD3 stimulation in a dose dependent manner

## Bue-5: NLRIAL
[1]
  inhibition of anti-CD3 stimulation at 5 μg/ml: significant levels of inhibition
  inhibition of anti-CD3 stimulation at 50 μg/ml: substantially complete inhibition
  inhibition of anti-CD3 stimulation: inhibit the anti-CD3 stimulation in a dose dependent manner

## Woo-2: Bt-SGSG-RENLRIALRY (Biotin-SGSGRENLRIALRY-OH)
[1]
  inhibition of anti-CD3 stimulation at 5 μg/ml: substantially less inhibition
  inhibition of anti-CD3 stimulation at 50 μg/ml: substantially complete inhibition
  inhibition of anti-CD3 stimulation: inhibit the anti-CD3 stimulation in a dose dependent manner

## peptide 2: Bi-SGSG-RVNLRIALRY (Biotin-SGSGRVNLRIALRY-OH)
[2]
  inhibition of CTL activity: inhibited CTL activity
[4]
  binding to PBLs: bound to the PBLs
  binding on resting lymphocytes: little or no binding on resting lymphocytes
[1]
  inhibition of anti-CD3 stimulation at 5 μg/ml: substantially less inhibition
  inhibition of anti-CD3 stimulation at 50 μg/ml: substantially complete inhibition
  inhibition of anti-CD3 stimulation: inhibit the anti-CD3 stimulation in a dose dependent manner
